{
  "source": "patent US11180518B2",
  "about": "“Phenyl-heterocycle-phenyl derivatives for use in the treatment or prevention of melanoma” (MAX-PLANCK-GESELLSCHAFT ZUR FÖRDERUNG DER WISSENSCHAFTEN …, priority 2017, dated 2021)",
  "key": {"WM1158 melanoma cells [1]": {"test_system": "WM1158 melanoma cells", "experiment": "Mitochondrial membrane potential (MitoTracker Red CMXRos)", "assay_type": "cell-based, human", "settings": "10 μM, only after 48 hr", "procedure": "(§1) Mitochondrial membrane potential. Melanoma cell lines WM983-B, SK-MEL-5 and WM1158 were treated with anle138b or received DMSO only for 24 or 48 hr. Prior to fixation with 3.7% PFA, the cells were incubated with 200 nM MitoTracker Red CMXRos (Thermo Fisher Scientific, Inc.) for 30 min at 37° C. Confocal image stacks were captured with a 63×NA 1.2 Apochromat water immersion lens on a Zeiss LSM 510 Meta confocal microscope in fluorescence and transmission modes."}, "SK-MEL-5 melanoma cells [2]": {"test_system": "SK-MEL-5 melanoma cells", "experiment": "Mitochondrial membrane potential (MitoTracker Red CMXRos)", "assay_type": "cell-based, human", "settings": "single 10 μM dose, as early as 24 hr", "procedure": "as §1"}, "WM983-B melanoma cells [3]": {"test_system": "WM983-B melanoma cells", "experiment": "Mitochondrial membrane potential (MitoTracker Red CMXRos)", "assay_type": "cell-based, human", "settings": "single 10 μM dose, as early as 24 hr", "procedure": "as §1"}, "[4]": {"test_system": "autophagy markers, LC3 and p62/SQSTM1", "settings": "mouse, in vivo; cited from earlier work"}, "[5]": {"test_system": "WM983-A, WM983-B, and SK-MEL-5 melanoma cell lines", "experiment": "Apoptosis markers in treated melanoma cells", "assay_type": "cell-based, human", "description": "Although the morphological changes in the WM983-A, WM983-B, and SK-MEL-5 melanoma cell lines following addition of anle138b occurred quite rapidly, they were not indicative of the cells undergoing apoptosis. […] Differential interference contrast (DIC) images of the morphology of the anle138b-treated WM983-B, SK-MEL-5, and WM1158 melanoma cells from the same panels are shown in FIG. 9."}, "WM1158 melanoma cells [6]": {"test_system": "WM1158 melanoma cells", "experiment": "Cell morphology (phase-contrast)", "assay_type": "cell-based, human", "settings": "10 μM, up to 96 hr, replenishment at 48 hr", "description": "(§2) To assess the possible impact of anle138b as well as anle138c on the different melanoma cell lines, WM983-A, WM983-B and SK-MEL-5, we treated them with increasing doses of either compound, dissolved in dimethyl sulfoxide (DMSO), and added to serum-free culture medium. […] We also observed that treatment with anle138b caused a more rapid morphological change than anle138c. To determine whether the effect of the two anle compounds was related to the amount of α-synuclein produced by the cells, we compared the proliferation of the (VGP) WM983-A high-level and the (RGP/VGP) WM1158 low-level α-synuclein-producing melanoma cells over a period of 96 hr, with replenishment of each anle compound at 48 hr (FIGS. 8A and B).\n(§3) 10 or 30 mM stock solutions of anle138b or anle138c were made in DMSO. Since anle138b as well as anle138c bind strongly to FBS, melanoma cells, plated for 24 hr in tissue-culture medium containing 10% FBS, were rinsed three times with serum-free medium prior to addition of anle138b, anle138c, or an equivalent volume of DMSO only in serum-free medium. Forty-eight hours later, the cell culture medium was removed, followed by addition of an equivalent dose of anle138b or anle138c, or DMSO only in serum-free culture medium. […] Proliferation of melanoma cells that had received DMSO only, or were treated with anle138b was determined by counting the cells with a hemocytometer.\n(§4) Cell morphology. Phase-contrast or DIC images of the melanoma cells that had been treated for various times with anle138b or anle138c, or had received DMSO only were captured with a 10×NA 0.6 objective on a Zeiss Axiovert 100 microscope with a Hamamatsu Orca charge-coupled device (CCD) camera. At least four images, at random areas per culture dish, were recorded for each time point."}, "SK-MEL-5 melanoma cells [7]": {"test_system": "SK-MEL-5 melanoma cells", "experiment": "Cell morphology (phase-contrast)", "assay_type": "cell-based, human", "settings": "increasing doses, serum-free medium; time- and dose-dependent", "description": "as §2, §3, §4"}, "WM983-B melanoma cells [8]": {"test_system": "WM983-B melanoma cells", "experiment": "Cell morphology (phase-contrast)", "assay_type": "cell-based, human", "settings": "increasing doses, serum-free medium; time- and dose-dependent", "description": "as §2, §3, §4"}, "WM983-B melanoma cells [9]": {"test_system": "WM983-B melanoma cells", "experiment": "Melanoma cell proliferation analysis (hemocytometer counting)", "assay_type": "cell-based, human", "settings": "single dose of 10 μM, 24 hr", "procedure": "To compare how rapidly anle138b affected the proliferation of melanoma cells, expressing α-synuclein at a high level, we treated the melanoma cell lines, WM983-A (VGP) and WM983-B (MGP), for 24, 48 or 72 hr with 10 μM of anle138b, with replenishment of the compound (10 μM) at 48 hr.\nas §3"}, "WM983-B melanoma cells [10]": {"test_system": "WM983-B melanoma cells", "experiment": "Immunoblot analysis of p62/SQSTM1 expression", "assay_type": "cell-based, human", "settings": "7.5 μM", "procedure": "For the analysis of p62/SQSTM1 protein expression, WM983-B melanoma whole-cell lysates were separated on 12% SDS-PAGE, transferred onto nitrocellulose membrane, blocked with 3% bovine serum albumin (BSA), probed with an anti-p62/SQSTM1 antibody (Cell Signaling Technology, Inc. Danvers, Mass., USA), followed by incubation with a corresponding HPR-conjugated secondary antibody and chemiluminescent substrate (EMD Millipore, Billerica, Mass., USA). Protein loading was determined by secondary probing with an anti-GAPDH antibody (Thermo Fisher Scientific Inc.)."}, "WM1158 melanoma cells [11]": {"test_system": "WM1158 melanoma cells", "experiment": "Melanoma cell proliferation analysis", "assay_type": "cell-based, human", "description": "as §2, §3"}, "[12]": {"settings": "in vivo; cited from earlier work"}, "Binding to FBS": {"experiment": "Binding to FBS", "assay_type": "in vitro ADME"}, "WM852 melanoma cells": {"test_system": "WM852 melanoma cells", "experiment": "LDH cytotoxicity analysis", "settings": "2, 5, 10 or 15 μM for 96 hr, replenishment at 48 hr"}, "WM983-B melanoma cells [13]": {"test_system": "WM983-B melanoma cells", "experiment": "LDH cytotoxicity analysis", "settings": "2, 5, 10 or 15 μM for 96 hr, replenishment at 48 hr"}},
  "data": [
    {"smiles": "Brc1cccc(-c2cc(-c3ccc4c(c3)OCO4)n[nH]2)c1", "note": "[anle138b, 5-(3-Bromophenyl)-3-(3,4-methylenedioxyphenyl)-1H-pyrazole]", "values": [
      {"measurement": "mitochondrial membrane potential", "setting": "WM1158 melanoma cells [1]", "value": "some reduction"},
      {"measurement": "mitochondrial membrane potential", "setting": "SK-MEL-5 melanoma cells [2]", "value": "significantly reduced"},
      {"measurement": "mitochondrial membrane potential", "setting": "WM983-B melanoma cells [3]", "value": "significantly reduced"},
      {"measurement": "level of the autophagy markers, LC3 and p62/SQSTM1", "setting": "[4]", "value": "did not change"},
      {"measurement": "cleaved caspase 3 (apoptosis)", "setting": "[5]", "value": "nor were they positive for cleaved caspase 3"},
      {"measurement": "morphology", "setting": "WM1158 melanoma cells [6]", "value": "did not show a significantly altered morphology"},
      {"measurement": "morphological changes", "setting": "SK-MEL-5 melanoma cells [7]", "value": "major morphological changes"},
      {"measurement": "morphological changes", "setting": "WM983-B melanoma cells [8]", "value": "major morphological changes"},
      {"measurement": "proliferation", "setting": "WM983-B melanoma cells [9]", "value": "inhibited the proliferation of both cell lines to a significant extent"},
      {"measurement": "p62/SQSTM1 expression", "setting": "WM983-B melanoma cells [10]; 48 and 72 hr, replenishment at 48 hr, vs DMSO only", "value": "noticeably elevated"},
      {"measurement": "p62/SQSTM1 expression", "setting": "WM983-B melanoma cells [10]; 24 hr", "value": "did not lead to an increase"},
      {"measurement": "proliferation", "setting": "WM1158 melanoma cells [11]; over 96 hr, replenishment at 48 hr", "value": "reduced proliferation only after 48 hr"},
      {"measurement": "recovery of proliferation after removal of compound", "setting": "WM1158 melanoma cells [11]; removal at 96 hr, fresh culture medium containing serum", "value": "able to recover proliferation normally"},
      {"measurement": "oral bioavailability and blood-brain-barrier penetration", "setting": "[12]", "value": "excellent"},
      {"measurement": "binding to FBS", "setting": "Binding to FBS", "value": "bind strongly"},
      {"measurement": "number of cells killed (LDH release) compared with WM983-B", "setting": "WM852 melanoma cells", "value": "significantly lower"},
      {"measurement": "cell killing (LDH release)", "setting": "WM983-B melanoma cells [13]", "value": "strong killing that reached a maximum at a 10 μM dose"}
    ]}
  ]
}
